In ChEMBL document CHEMBL3045580, “New aspect of gallic esters: marked effect on termite feeding” (J Pestic Sci, 2011):
Calls of active or inactive are those of the source. The calls are words filed in the database; no cut-off is given here.

Key:
Assay type in all cases: functional, organism-based
[1] = system: Coptotermes formosanus; assay: Antifeeding activity against Coptotermes formosanus undifferentiated larvae assessed as induction of feeding deterrence using 0.5% w/w compound treated filter paper disks measured after 1 week by no-choice feeding test
[2] = system: Coptotermes formosanus; assay: Feeding stimulant effect in Coptotermes formosanus undifferentiated larvae using 0.5% w/w compound treated filter paper disks measured after 1 week by no-choice feeding test
[3] = system: Coptotermes formosanus; assay: Antifeeding activity against Coptotermes formosanus undifferentiated larvae assessed as induction of feeding deterrence compound treated filter paper disks measured after 1 week by no-choice feeding test

SMILES	Activity [1]	Activity [2]	IC50 [3] [%]
CCCCCCCCCCCCCCOC(=O)c1cc(O)c(O)c(O)c1	Active	–	–
CCCCCCCCCCCCOC(=O)c1cc(O)c(O)c(O)c1	Active	–	–
CCCCCCCCOC(=O)c1cc(O)c(O)c(O)c1	Active	–	–
CCCOC(=O)c1cc(O)c(O)c(O)c1	Active	–	–
CCCCCCOC(=O)c1cc(O)c(O)c(O)c1	Active	–	–
CCCCCCCCCCCCCCCCCCOC(=O)c1cc(O)c(O)c(O)c1	–	Active	–
CCCCCCCCCCOC(=O)c1cc(O)c(O)c(O)c1 [DECYL GALLATE]	Active	–	0.05
